From patent US4487777A (priority 1981, dated 1984)

What was measured:
[1] = system: Phytophthora infestans conidia; experiment: whole plant or invertebrate; format: in vivo; conditions: in Solanum lycopersicum, 168 h, read-out: % Control TLB (Tomato Late Blight)
[2] = system: Alternaria solani conidia; experiment: Tomato Early Blight control (tomato seedlings, sprayed then inoculated); format: in vivo; conditions: 288 h, 250-ppm solution, tomato (Bonny Best), relative to untreated check plants, read-out: % Control TEB (Tomato Early Blight)
Description: Compounds of the invention were tested for the control of the Tomato Early Blight organism, Alternaria solani conidia. Tomato (variety Bonny Best) seedlings of 6 to 7 weeks old were used. The tomato plants were sprayed with a 250-ppm solution of the test compound in an acetone-and-water solution containing a small amount of a non-ionic emulsifier. The sprayed plants were inoculated one day later with the organism, placed in the environmental chamber and incubated at 66°-68° F. and 100% relative humidity for 24 hours. Following the incubation, the plants were maintained in the greenhouse for about 12 days. Percent disease control was based on the percent disease development on untreated check plants.

[3] = system: Plasmapora viticola; experiment: Grape Downy Mildew control (detached grape leaves); format: in vivo; conditions: detached Vitis vinifera cultivar Emperor leaves; % disease reduction relative to untreated check plants; concentration not given
Description: Grape Downy Mildew Control
The compounds of the invention were tested for the control of the grape downy mildew organism Plasmapora viticola. Detached leaves, between 70 and 85 mm in diameter, of 7-week-old Vitis vinifera cultivar Emperor grape seedlings were used as hosts. The leaves were sprayed with a solution of the test compound in acetone. The sprayed leaves were dried, inoculated with a spore suspension of the organism, placed in a humid environmental chamber and incubated at 66°-68° F. and about 100% relative humidity. After incubation for 2 days, the plants were then held in a greenhouse for seven to nine days. Afterwards, the amount of disease control was determined. The percent disease control provided by a given test compound was based on the percent disease reduction relative to untreated check plants.

[4] = system: Rhizoctonia solani; experiment: Rhizoctonia mycelial inhibition test; format: cell-based; conditions: 500 ppm in acetone; 25° C., 24 hours; standard Difolatan; "0" assigned where greater than 1.6 micrograms/cm^2 required for 99% control
Description: Compounds of the present invention were evaluated for effectiveness against Rhizoctonia solani by means of a mycelial inhibition test. This test is designed to measure the fungitoxic activity of fungicidal chemicals in terms of their degree of inhibition of mycelial growth. Each compound to be tested was dissolved in acetone to 500 ppm concentration. Paper strips were infused with the particular mycelium growth (on this case Rhizoctonia solani) by covering the paper with a potato dextrose broth culture of mycelial suspension. The papers were then placed on potato dextrose agar plates and sprayed by means of a microsprayer with the fungicidal solution. The treated paper strips were incubated at 25° C. and data taken after 24 hours. Fungicidal activity is measured by the zone of inhibited mycelial growth from the center of the paper strip. The effectiveness of the compounds tested for fungicidal activity against Rhizoctonia solani is reported in Table III in terms of the [formula] In cases where greater than 1.6 micrograms/cm^2 were required for 99% control, a value of "0" was assigned to the test compound.

[5] = system: Septoria apii; format: in vivo; conditions: celery (Utah) plants; % disease reduction relative to untreated check plants; concentration not given
[6] = system: Botrytis cinerea; experiment: Botrytis cinerea preventive control on harvested grape berries; format: in vivo; conditions: grape berries (Emperor)
Description: EXAMPLE 15-Botrytis Cinerea Control
Compound 1 of the invention was tested as a preventive fungicide against Botrytis cinerea on harvested mature grape berries (variety Emperor) by the following procedure: four grape bunches (trimmed to approximately 30 berries) were sprayed with a solution of the test compound in a solution of water, acetone and a small amount of a non-ionic emulsifier. The sprayed grapes were inoculated approximately one day later with 2- to 3-week-old culture of Botrytis cinerea grown on potato dextrose agar plates. The rate of disease incidence was determined 5-10 days after inoculation, when disease symptoms are fully evident on non-treated check grapes. Infection is determined by actual count of the number of infected berries. The percent disease control provided by a test compound was calculated from the percentage disease reduction based on the non-treated check grapes.

Structure (SMILES) | pest or weed control at 250 µg/mL [1] [%] | pest or weed control at 250 µg/mL [2] [%] | % Control Grape DM (Grape Downy Mildew) [3] [%] | % Control Rhizoc (Rhizoctonia) [4] [%] | % Control CLB (Celery Late Blight) [5] [%] | Botrytis Prevention (% Control) ([6]; 40 ppm) [%] | Botrytis Prevention (% Control) ([6]; 100 ppm) [%] | Botrytis Prevention (% Control) ([6]; 250 ppm) [%]
CCOC(=O)CS(=O)(=O)CC1CC(=O)N(c2cc(Cl)cc(Cl)c2)C1=O (centres unmarked) [Compound 3, N-3,5-dichlorophenyl-2-ethoxycarbonylmethylsulfonylmethylsuccinimide] | 93 | 85 | 23 | 78 |  |  |  | 
CCOC(=O)CSCC1CC(=O)N(c2cc(Cl)cc(Cl)c2)C1=O (centres unmarked) [Compound 4, N-3,5-dichlorophenyl-2-ethoxycarbonylmethylthiomethylsuccinimide] | 84 | 0 | 0 | 0 |  |  |  | 
COC(=O)CS(=O)(=O)CC1CC(=O)N(c2cc(Cl)cc(Cl)c2)C1=O (centres unmarked) [Compound 1, N-3,5-dichlorophenyl-2-methoxycarbonylmethylsulfonylmethylsuccinimide] | 11 | 89 | 81 | 0 | 57 | 58 | 52 | 58
C=C(Cl)CS(=O)(=O)CC1CC(=O)N(c2cc(Cl)cc(Cl)c2)C1=O (centres unmarked) [Compound 10] | 29 | 83 | 18 | 91 | 50 |  |  | 
CCSC=C1CC(=O)N(c2cc(Cl)cc(Cl)c2)C1=O [Compound 13, N-3,5-dichlorophenyl-2-ethylthiomethenylsuccinimide] | 0 | 94 | 35 | 0 | 0 |  |  | 
COC(=O)CSCC1CC(=O)N(c2cc(Cl)cc(Cl)c2)C1=O (centres unmarked) [Compound 6, N-3,5-dichlorophenyl-2-methoxycarbonylmethylthiomethylsuccinimide] | 39 | 80 | 18 | 0 | 50 |  |  | 
CC(=O)SCC1CC(=O)N(c2cc(Cl)cc(Cl)c2)C1=O (centres unmarked) [Compound 5, N-3,5-dichlorophenyl-2-thioacetylmethylsuccinimide] | 0 | 57 | 23 | 0 | 0 |  |  | 
O=C1CC(=CSc2ccccc2)C(=O)N1c1cc(Cl)cc(Cl)c1 [Compound 12, N-3,5-dichlorophenyl-2-phenylthiomethenylsuccinimide] | 21 | 0 | 0 | 0 | 0 |  |  | 
CC(C)(C)S(=O)(=O)C=C1CC(=O)N(c2cc(Cl)cc(Cl)c2)C1=O [Compound 11, N-3,5-dichlorophenyl-2-t-butylsulfonylmethenylsuccinimide] | 6 | 0 | 8 | 0 | 0 |  |  | 
C=CCS(=O)(=O)CC1CC(=O)N(c2cc(Cl)cc(Cl)c2)C1=O (centres unmarked) [Compound 9, N-3,5-dichlorophenyl-2-allylsulfonylmethylsuccinimide] | 25 | 63 | 57 | 80 | 50 |  |  | 
CC(C)(C)SC=C1CC(=O)N(c2cc(Cl)cc(Cl)c2)C1=O [Compound 14, N-3,5-dichlorophenyl-2-t-butylthiomethenylsuccinimide] | 67 | 96 | 42 | 0 | 57 |  |  | 
O=C1CC(C2SCCS2)C(=O)N1c1cc(Cl)cc(Cl)c1 (centres unmarked) [Compound 8, N-3,5-dichlorophenyl-2-formylsuccinimide-2-dithioketal] | 89 | 98 | 18 | 30 | 29 |  |  | 
COC(=O)CCSCC1CC(=O)N(c2cc(Cl)cc(Cl)c2)C1=O (centres unmarked) [Compound 7] | 21 | 89 | 97 | 0 | 0 |  |  | 
COC(=O)CCS(=O)(=O)CC1CC(=O)N(c2cc(Cl)cc(Cl)c2)C1=O (centres unmarked) [Compound 2] | 23 | 96 | 71 | 0 | 45 |  |  | 
